Reference: US20040092547A1, “Alkyl-[4-(difluorophenyl)-oxazol-5-yl]-triazolo-pyridines” (Pfizer Inc, priority 2002, published 2004)

`CC(C)c1nnc2ccc(-c3ocnc3-c3c(F)cccc3F)cn12` [Example 1, 6-[4-(2,6-Difluoro-phenyl)-oxazol-5-yl]-3-isopropyl-[1,2,4]triazolo[4,3-a]pyridine] showed a melting point of 175.7 to 176.2 °C.
